Assay results taken from publication PMC7806260, “A gustatory receptor tuned to the steroid plant hormone brassinolide in Plutella xylostella (Lepidoptera: Plutellidae)” (eLife, 2020).

Biological target: T1, PxylGr34 (Plutella xylostella, UniProt A0ABQ7Q355)
T1 construct: gene JYU34_016516; no tag or co-receptor stated
T1 sequence (A0ABQ7Q355 1-418): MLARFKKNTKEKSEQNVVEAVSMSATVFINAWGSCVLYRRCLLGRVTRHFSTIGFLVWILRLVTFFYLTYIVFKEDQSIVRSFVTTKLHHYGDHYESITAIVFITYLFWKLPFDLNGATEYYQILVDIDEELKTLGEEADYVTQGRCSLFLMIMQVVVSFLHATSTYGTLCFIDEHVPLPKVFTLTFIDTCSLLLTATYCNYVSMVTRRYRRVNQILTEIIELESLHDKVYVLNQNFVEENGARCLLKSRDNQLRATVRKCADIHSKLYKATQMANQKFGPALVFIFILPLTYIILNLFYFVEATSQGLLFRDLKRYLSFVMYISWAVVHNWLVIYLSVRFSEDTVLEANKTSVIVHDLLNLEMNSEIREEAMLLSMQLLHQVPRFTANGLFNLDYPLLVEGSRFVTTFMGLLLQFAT
Experiment: two-electrode voltage clamp, Xenopus oocytes
Format: cell-based
Details: inward current, agonist at 10^-4 M, pH 7.5, holding potential -80 mV

Structure (SMILES) | two-electrode voltage clamp, Xenopus oocytes | two-electrode voltage clamp, Xenopus oocytes (dose series recorded)
C=CCN=C=S [Allyl isothiocyanate] | Oocytes expressing PxylGr34 showed weak responses to methyl jasmonate and allyl isothiocyanate | –
CC(C)[C@H](C)[C@@H](O)[C@H](O)[C@@H](C)[C@H]1CC[C@H]2[C@@H]3COC(=O)[C@H]4C[C@H](O)[C@H](O)C[C@]4(C)[C@H]3CC[C@]12C [Brassinolide] | – | BL induced a strong response in the oocytes expressing PxylGr34
CC/C=C\C[C@H]1C(=O)CC[C@@H]1CC(=O)OC [Methyl jasmonate] | Oocytes expressing PxylGr34 showed weak responses to methyl jasmonate and allyl isothiocyanate | –
